What all share (assay): Mutant β-galactosidase activity in model cells, 4 days culture
Holding throughout (type): cell-based

Assay [1] deals with T1, human mutant β-galactosidase G123R (Homo sapiens, UniProt P16278, G123R).
T1 construct: expressed in transfected cells; host or cells: SV40-immortalized skin fibroblasts of a β-galactosidase-deficient knockout mouse
T1 sequence (P16278 29-677 G123R): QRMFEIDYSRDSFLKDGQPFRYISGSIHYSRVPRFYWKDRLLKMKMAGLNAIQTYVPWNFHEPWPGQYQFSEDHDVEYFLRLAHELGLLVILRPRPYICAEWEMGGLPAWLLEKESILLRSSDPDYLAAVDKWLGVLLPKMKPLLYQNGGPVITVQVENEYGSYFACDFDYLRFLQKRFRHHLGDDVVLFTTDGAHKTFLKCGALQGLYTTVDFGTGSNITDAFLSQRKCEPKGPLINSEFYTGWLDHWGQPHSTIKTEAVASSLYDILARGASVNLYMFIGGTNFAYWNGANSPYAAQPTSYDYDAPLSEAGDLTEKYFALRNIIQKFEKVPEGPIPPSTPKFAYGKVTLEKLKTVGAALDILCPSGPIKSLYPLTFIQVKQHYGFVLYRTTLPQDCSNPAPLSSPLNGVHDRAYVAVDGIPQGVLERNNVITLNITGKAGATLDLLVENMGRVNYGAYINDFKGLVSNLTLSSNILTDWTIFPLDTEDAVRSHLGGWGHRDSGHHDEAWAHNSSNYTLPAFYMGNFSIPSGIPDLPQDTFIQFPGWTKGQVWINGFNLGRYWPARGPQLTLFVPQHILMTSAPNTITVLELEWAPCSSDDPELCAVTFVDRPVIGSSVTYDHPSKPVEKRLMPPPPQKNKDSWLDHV
The text has this:
(§1) Cultured skin fibroblasts of a β-galactosidase-deficient knockout mouse was immortalized by introducing an SV40 viral gene, and enzyme genes integrated into pSV2neo and an expression vector were also introduced simultaneously, thereby establishing a model cell (Brain Dev., 23(5), 284-287, 2001). The genes used are human normal (GP8) and mutant β-galactosidase gene Y316C, G123R (infantile GM1-gangliosidosis), R201C (juvenile GM1-gangliosidosis), 151T, T82M, R201H, R263S, R457Q (adult GM1-gangliosidosis), W273L, Y83H, R482H and R482C (Morquio-B disease) (Hum. Genet., 93(2), 109-114, 1994).
(§2) As a control substance, 0.5 mM N-(n-butyl)-deoxygalactonojirimycin (NB-DGJ: The Journal of Biological Chemistry, 269, 27108-27114 (1994)) was used, and the substance 18 of the present invention was used in an amount of 0.2 μM.
(§3) Specifically, after culturing the model cell for 4 days using a cell culture medium (10% FCS DMEM) containing the substance 18 of the present invention, the resulting cells were recovered and diluted such that the amount of protein in the suspension became a predetermined level, and then enzyme activity in the diluted suspension was measured. Using 4-methylumbelliferyl-β-D-galactopyranoside as the fluorescent substrate, the enzyme activity during 30 minutes was measured at 37° C.

Assay [2] has as its target T2, human mutant β-galactosidase W273L (Homo sapiens, UniProt P16278, W273L).
T2 construct: expressed in transfected cells; host or cells: SV40-immortalized skin fibroblasts of a β-galactosidase-deficient knockout mouse
T2 sequence (P16278 29-677 W273L): T1 sequence (P16278 29-677 G123R) with R95G, W245L
Description: as §1, §2, §3

For assay [3], the target named is T3, human mutant β-galactosidase R482C (Homo sapiens, UniProt P16278, R482C).
T3 construct: expressed in transfected cells; host or cells: SV40-immortalized skin fibroblasts of a β-galactosidase-deficient knockout mouse
T3 sequence (P16278 29-677 R482C): T1 sequence (P16278 29-677 G123R) with R95G, R454C
Description: as §1, §2, §3

Two molecules from US8211945B2, “Carba-sugar amine derivative and glycolipid metabolic disorder treating agent containing the same as active ingredient” (Seikagaku Corporation, priority 2001, dated 2012) can be followed below.

Substitutions are numbered along the chain they refer to.

Regarding `CCCCN1C[C@H](O)[C@@H](O)[C@@H](O)[C@H]1CO` [Control, N-(n-butyl)-deoxygalactonojirimycin, reference compound], the “enzyme activity, Control” value in assay [1] (transferred gene G123R, control substance 0.5 mM NB-DGJ) was determined as 0.13; in assay [2] (transferred gene W273L, control substance 0.5 mM NB-DGJ) it was 11.83; in assay [3] (transferred gene R482C, control substance 0.5 mM NB-DGJ) it was 0.14.
In the case of `CCCCCCCCN[C@@H]1C=C(CO)[C@H](O)C(O)[C@@H]1O` (stereo partly drawn) [Substance 18, N-octyl-5a-carba-α-L-arabino-hexo-5(5a)-enopyranosylamine], the “Relative ratio (×100%)” value was 1.55 ×100% in assay [1] (G123R, substance 18 vs control); 1.50 ×100% in assay [2] (W273L, substance 18 vs control); 4.25 ×100% in assay [3] (R482C, substance 18 vs control). Moreover, the enzyme activity in assay [1] (transferred gene G123R, 0.2 μM, 4 days) is 0.20; in assay [2] (transferred gene W273L, 0.2 μM, 4 days), 17.71; in assay [3] (transferred gene R482C, 0.2 μM, 4 days) it was 0.62. Further, the “enzyme activity increased in comparison with the control” value in assay [2] (W273L, 0.2 μM) is at least 150%.
